pIC50: −log10 of the molar value.
Columns and labels:
[1] = Inhibition of Influenza A virus A/chicken/shandong/S2/02(H9N2) Neuraminidase
[2] = Inhibition of Influenza A virus A/duck/china/QJ/01(H5N1) Neuraminidase
[3] = Inhibition of Influenza A virus A/duck/china/1206/2012(H5N1) Neuraminidase

CCC(CC)O[C@@H]1C=C(C(=O)O)C[C@H](NCc2ccccc2Cl)[C@H]1NC(C)=O
pIC50 [1]: < 6.37 | pIC50 [2]: 7.54 | pIC50 [3]: 7.85

CCC(CC)O[C@@H]1C=C(C(=O)O)C[C@H](NCc2ccccc2OC)[C@H]1NC(C)=O
pIC50 [1]: 6.60 | pIC50 [2]: < 5.70 | pIC50 [3]: 6.93

CCC(CC)O[C@@H]1C=C(C(=O)NO)C[C@H](N)[C@H]1NC(C)=O
pIC50 [1]: 6.92 | pIC50 [2]: 6.74 | pIC50 [3]: < 6.70

CCC(CC)O[C@@H]1C=C(C(=O)O)C[C@H](N(CC(C)C)C(=N)N)[C@H]1NC(C)=O
pIC50 [1]: < 5.30 | pIC50 [2]: 6.35 | pIC50 [3]: 6.41

CCCCN(C(=N)N)[C@H]1CC(C(=O)O)=C[C@@H](OC(CC)CC)[C@@H]1NC(C)=O
pIC50 [1]: < 5.91 | pIC50 [2]: < 5.52 | pIC50 [3]: < 5.52

CCC(CC)O[C@@H]1C=C(C(=O)O)C[C@H](NC(=N)N)[C@H]1NC(C)=O [Guanidino-Oseltamivir Carboxylicacid]
pIC50 [1]: 7.96 | pIC50 [2]: 8.59 | pIC50 [3]: 8.64

CCC(CC)O[C@@H]1C=C(C(=O)O)C[C@H](NC/C=C/c2ccccc2)[C@H]1NC(C)=O
pIC50 [1]: 5.49 | pIC50 [2]: 6.97 | pIC50 [3]: 7.32

CCC(CC)O[C@@H]1C=C(C(=O)O)C[C@H](NCc2cccs2)[C@H]1NC(C)=O
pIC50 [1]: 7.00 | pIC50 [2]: 7.27 | pIC50 [3]: 7.28

CCC(CC)O[C@@H]1C=C(C(=O)O)C[C@H](N(CCC(C)C)C(=N)N)[C@H]1NC(C)=O
pIC50 [1]: 5.31 | pIC50 [2]: < 5.52 | pIC50 [3]: 5.60

CCC(CC)O[C@@H]1C=C(C(=O)O)C[C@H](NCc2ccccc2Br)[C@H]1NC(C)=O
pIC50 [1]: 7.38 | pIC50 [2]: 7.25 | pIC50 [3]: 7.42

CCC(CC)O[C@@H]1C=C(C(=O)O)C[C@H](N(CCCc2ccccc2)C(=N)N)[C@H]1NC(C)=O
pIC50 [1]: < 5.30 | pIC50 [2]: < 5.52 | pIC50 [3]: 5.75

CCC(CC)O[C@@H]1C=C(C(=O)O)C[C@H](NCCCc2ccccc2)[C@H]1NC(C)=O
pIC50 [1]: < 5.30 | pIC50 [2]: 6.72 | pIC50 [3]: 7.09

CCCN(C(=N)N)[C@H]1CC(C(=O)O)=C[C@@H](OC(CC)CC)[C@@H]1NC(C)=O
pIC50 [1]: < 5.30 | pIC50 [2]: 5.41 | pIC50 [3]: 5.94

CCC(CC)O[C@@H]1C=C(C(=O)O)C[C@H](NCc2ccccc2OCc2ccco2)[C@H]1NC(C)=O
pIC50 [1]: 6.14 | pIC50 [2]: < 6.70 | pIC50 [3]: < 6.70

CCC(CC)O[C@@H]1C=C(C(=O)O)C[C@H](NCc2ccccc2O)[C@H]1NC(C)=O
pIC50 [1]: 5.30 | pIC50 [2]: 6.71 | pIC50 [3]: 7.20

CCCCCN(C(=N)N)[C@H]1CC(C(=O)O)=C[C@@H](OC(CC)CC)[C@@H]1NC(C)=O
pIC50 [1]: < 5.30 | pIC50 [2]: < 5.52 | pIC50 [3]: 5.44

CCC(CC)O[C@@H]1C=C(C(=O)O)C[C@H](N(Cc2cccs2)C(=N)N)[C@H]1NC(C)=O
pIC50 [1]: 6.46 | pIC50 [2]: 6.72 | pIC50 [3]: 7.06

CCC(CC)CN(C(=N)N)[C@H]1CC(C(=O)O)=C[C@@H](OC(CC)CC)[C@@H]1NC(C)=O
pIC50 [1]: < 5.30 | pIC50 [2]: < 5.52 | pIC50 [3]: < 5.52

CCC(CC)CN[C@H]1CC(C(=O)O)=C[C@@H](OC(CC)CC)[C@@H]1NC(C)=O
pIC50 [1]: 7.15 | pIC50 [2]: 6.27 | pIC50 [3]: 7.37

CCC(CC)O[C@@H]1C=C(C(=O)O)C[C@H](NCc2ccccc2)[C@H]1NC(C)=O
pIC50 [1]: 6.38 | pIC50 [2]: 7.10 | pIC50 [3]: 7.72

CCC(CC)O[C@@H]1C=C(C(=O)O)C[C@H](N(Cc2ccc(-c3ccccc3)cc2)C(=N)N)[C@H]1NC(C)=O
pIC50 [1]: 6.43 | pIC50 [2]: 6.37 | pIC50 [3]: 6.57

CCC(CC)O[C@@H]1C=C(C(=O)O)C[C@H](N(Cc2ccc(C(C)C)cc2)C(=N)N)[C@H]1NC(C)=O
pIC50 [1]: 5.67 | pIC50 [2]: 5.49 | pIC50 [3]: 5.81

CCC(CC)O[C@@H]1C=C(C(=O)O)C[C@H](NCc2ccccc2F)[C@H]1NC(C)=O
pIC50 [1]: 6.19 | pIC50 [2]: 6.97 | pIC50 [3]: 7.05

CCC(CC)O[C@@H]1C=C(C(=O)O)C[C@H](NCc2ccc(-c3ccccc3)cc2-c2ccccc2)[C@H]1NC(C)=O
pIC50 [1]: 7.42 | pIC50 [2]: 7.24 | pIC50 [3]: 7.41

CCC(CC)O[C@@H]1C=C(C(=O)O)C[C@H](NCC(C)C)[C@H]1NC(C)=O
pIC50 [1]: 5.76 | pIC50 [2]: 7.00 | pIC50 [3]: 7.08

CCC(CC)O[C@@H]1C=C(C(=O)O)C[C@H](N(Cc2ccccc2OC)C(=N)N)[C@H]1NC(C)=O
pIC50 [1]: 6.44 | pIC50 [3]: 6.60

CCC(CC)O[C@@H]1C=C(C(=O)O)C[C@H](NCCCN)[C@H]1NC(C)=O
pIC50 [1]: 5.98 | pIC50 [2]: < 6.70 | pIC50 [3]: < 6.70

CCC(CC)O[C@@H]1C=C(C(=O)O)C[C@H](NCc2ccc(-c3cccs3)cc2)[C@H]1NC(C)=O
pIC50 [1]: 6.68 | pIC50 [2]: 7.85 | pIC50 [3]: 8.37

CCC(CC)O[C@@H]1C=C(C(=O)NO)C[C@H](NC(=N)N)[C@H]1NC(C)=O
pIC50 [1]: 6.80 | pIC50 [2]: < 6.70 | pIC50 [3]: < 6.70

CCC(CC)O[C@@H]1C=C(C(=O)O)C[C@H](N(Cc2ccccc2)C(=N)N)[C@H]1NC(C)=O
pIC50 [2]: < 5.52 | pIC50 [3]: 5.52

CCC(CC)O[C@@H]1C=C(C(=O)O)C[C@H](NCc2ccc(-c3ccccc3)cc2Cl)[C@H]1NC(C)=O
pIC50 [1]: 6.47 | pIC50 [2]: 7.36 | pIC50 [3]: 7.57

CCC(CC)O[C@@H]1C=C(C(=O)O)C[C@H](NCc2ccc(-c3ccccc3)cc2)[C@H]1NC(C)=O
pIC50 [1]: 6.24 | pIC50 [2]: 8.17 | pIC50 [3]: 8.42

C=CCOc1ccccc1CN[C@H]1CC(C(=O)O)=C[C@@H](OC(CC)CC)[C@@H]1NC(C)=O
pIC50 [1]: 5.72 | pIC50 [2]: < 6.70 | pIC50 [3]: < 6.70

CCCCN[C@H]1CC(C(=O)O)=C[C@@H](OC(CC)CC)[C@@H]1NC(C)=O
pIC50 [1]: 6.20 | pIC50 [2]: 7.12 | pIC50 [3]: 7.25
